Assay results from patent US10874743B2, “IRAK degraders and uses thereof” (Kymera Therapeutics, Inc., priority 2017, dated 2020).

Molecular target: T1, IRAK4 (Homo sapiens, UniProt Q9NWZ3)
T1 sequence (Q9NWZ3 1-460): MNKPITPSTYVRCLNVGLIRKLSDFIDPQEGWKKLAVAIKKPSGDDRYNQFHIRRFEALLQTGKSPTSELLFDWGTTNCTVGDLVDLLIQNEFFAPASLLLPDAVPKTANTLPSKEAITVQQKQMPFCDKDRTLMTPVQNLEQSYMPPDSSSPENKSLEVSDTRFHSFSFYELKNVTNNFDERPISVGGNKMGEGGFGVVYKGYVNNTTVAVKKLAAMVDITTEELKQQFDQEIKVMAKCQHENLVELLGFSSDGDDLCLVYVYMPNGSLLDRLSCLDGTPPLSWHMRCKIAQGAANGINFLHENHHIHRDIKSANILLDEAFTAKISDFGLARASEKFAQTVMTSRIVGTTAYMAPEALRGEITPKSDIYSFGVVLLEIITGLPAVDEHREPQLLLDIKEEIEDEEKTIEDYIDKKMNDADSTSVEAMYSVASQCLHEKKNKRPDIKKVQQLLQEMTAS
Assay: PBMC degradation assay (western blot, % IRAK4 degraded after 4 hours)
Assay type: cell-based
Details: human PBMCs
Procedure: Protocol summary of PBMC degradation studies from compound treatment through quantitation.
PBMC culture medium: Human peripheral blood mononuclear cells (PBMCs): RPMI+10% FBS (Heat-inactivated)+1% P/S.
Cells were cultured at a minimum of 2.5×10^6 c/mL. • PBMCs were incubated @ 37° C./5% CO2 and allowed to rest overnight. • Following overnight recovery, a cell count/viability assessment by trypan blue exclusion was performed. Cells densities were adjusted back to 2.5×10^6 c/mL (proceed with plating only if viability >80%). • In a 6 well plate, 2.0 mL of cells were added to each well for a minimum of 5×10^6 CT per treatment condition. Compounds dilutions were prepared from 20 mM stock and were added at a final 1000× dilution (0.1% DMSO concentration). • At the end of treatment, cells were harvested and spun @ 1800 rpm for 5 min. 1×PBS wash and spun again @ 1800 rpm for 5 min. Cell pellets were frozen and stored at −80° C. until further processing. • Lysates were generated by resuspending in lysis buffer. Protein quantification was performed with a BCA kit. • 20 μg of protein were loaded per lane and run on a 26-well 4-12% Bis-Tris SDS-page gel. • Transfers were performed on PVDF membranes using the BioRad Mixed MW turbo program for 7 min. • Membranes were blocked for one hour on a rocker at room temperature. • Primary antibodies were incubated overnight at 4° C. on a rocker. • Membranes were washed 3×TBST, 5 min each. • Secondaries were added and incubated for one hour on a rocker at room temperature. • Membranes were washed 3×TBST, 5 min each and rinsed well with deionized H2O. Membranes were scanned using the Licor Odessey CLx and bands were quantified using Image Studio Lite Version 5.2 software.
PBMC results at 4 hours. The letter codes indicate the percentage of IRAK4 degraded after 4 hours: A (>50% degradation), B (>20-50% degradation) and C (<20% degradation)

Row | Structure (SMILES) | PBMC % IRAK4 Degradation
1 | NC(=O)c1nn(-c2ccc(C(=O)NCCNCCCCCNc3cccc4c3C(=O)N(C3CCC(=O)NC3=O)C4=O)cc2)cc1NC(=O)c1coc(-c2ccnc(NCC(F)(F)F)c2)n1 (centres unmarked) [I-144, N-[3-carbamoyl-1-[4-[2-[5-[[2-(2,6-dioxo-3-piperidyl)-1,3-dioxo-isoindolin-4-yl]amino]pentylamino]ethylcarbamoyl]phenyl]pyrazol-4-yl]-2-[2-(2,2,2-trifluoroethylamino)-4-pyridyl]oxazole-4-carboxamide] | A (>50% degradation)
2 | NC(=O)c1nn(C2CCN(C(=O)NCCOCCOCCNc3cccc4c3C(=O)N(C3CCC(=O)NC3=O)C4=O)CC2)cc1NC(=O)c1coc(-c2ccnc(NCC(F)(F)F)c2)n1 (centres unmarked) [I-145, N-[3-carbamoyl-1-[1-[2-[2-[2-[[2-(2,6-dioxo-3-piperidyl)-1,3-dioxo-isoindolin-4-yl]amino]ethoxy]ethoxy]ethylcarbamoyl]-4-piperidyl]pyrazol-4-yl]-2-[2-(2,2,2-trifluoroethylamino)-4-pyridyl]oxazole-4-carboxamide] | C (<20% degradation)
3 | O=C1CCC(N2C(=O)c3cccc(NCCNCCCCCNC(=O)c4ccc(-n5cc(NC(=O)c6coc(-c7ccnc(NCC8CC8)c7)n6)c(C(F)(F)F)n5)cc4)c3C2=O)C(=O)N1 (centres unmarked) [I-150] | A (>50% degradation)
4 | NC(=O)c1nn(C2CCN(C(=O)COCCOCCOCCNc3cccc4c3C(=O)N(C3CCC(=O)NC3=O)C4=O)CC2)cc1NC(=O)c1coc(-c2ccnc(NCC(F)(F)F)c2)n1 (centres unmarked) [I-152, N-[3-carbamoyl-1-[1-[2-[2-[2-[2-[[2-(2,6-dioxo-3-piperidyl)-1,3-dioxo-isoindolin-4-yl]amino]ethoxy]ethoxy]ethoxy]acetyl]-4-piperidyl]pyrazol-4-yl]-2-[2-(2,2,2-trifluoroethylamino)-4-pyridyl]oxazole-4-carboxamide] | C (<20% degradation)
5 | NC(=O)c1nn(C2CCN(C(=O)COCCOCCNc3cccc4c3C(=O)N(C3CCC(=O)NC3=O)C4=O)CC2)cc1NC(=O)c1coc(-c2ccnc(NCC(F)(F)F)c2)n1 (centres unmarked) [I-154] | B (>20-50% degradation)

More lines, now with the values ahead:

Row | PBMC % IRAK4 Degradation | Structure (SMILES)
6 | C (<20% degradation) | NC(=O)c1nn(C2CCN(C(=O)COCCOCCOCCOCCNc3cccc4c3C(=O)N(C3CCC(=O)NC3=O)C4=O)CC2)cc1NC(=O)c1coc(-c2ccnc(NCC(F)(F)F)c2)n1 (centres unmarked) [I-155]
7 | C (<20% degradation) | NC(=O)c1nn(C2CN(C(=O)COCCOCCNc3cccc4c3C(=O)N(C3CCC(=O)NC3=O)C4=O)C2)cc1NC(=O)c1coc(-c2ccnc(NCC(F)(F)F)c2)n1 (centres unmarked) [I-156]
8 | C (<20% degradation) | NC(=O)c1nn(C2CN(C(=O)COCCOCCOCCOCCNc3cccc4c3C(=O)N(C3CCC(=O)NC3=O)C4=O)C2)cc1NC(=O)c1coc(-c2ccnc(NCC(F)(F)F)c2)n1 (centres unmarked) [I-157]
9 | C (<20% degradation) | NC(=O)c1nn(C2CN(C(=O)COCCOCCOCCNc3cccc4c3C(=O)N(C3CCC(=O)NC3=O)C4=O)C2)cc1NC(=O)c1coc(-c2ccnc(NCC(F)(F)F)c2)n1 (centres unmarked) [I-158]
10 | A (>50% degradation) | CN(CCOCCOCCNc1cccc2c1C(=O)N(C1CCC(=O)NC1=O)C2=O)C(=O)c1ccc(-n2cc(NC(=O)c3coc(-c4ccnc(NCC(F)(F)F)c4)n3)c(C(N)=O)n2)cc1 (centres unmarked) [I-159, N-[3-carbamoyl-1-[4-[2-[2-[2-[[2-(2,6-dioxo-3-piperidyl)-1,3-dioxo-isoindolin-4-yl]amino]ethoxy]ethoxy]ethyl-methyl-carbamoyl]phenyl]pyrazol-4-yl]-2-[2-(2,2,2-trifluoroethylamino)-4-pyridyl]oxazole-4-carboxamide]
11 | A (>50% degradation) | NC(=O)c1nn(-c2ccc(CNCCOCCOCCNc3cccc4c3C(=O)N(C3CCC(=O)NC3=O)C4=O)cc2)cc1NC(=O)c1coc(-c2ccnc(NCC(F)(F)F)c2)n1 (centres unmarked) [I-171, N-[3-carbamoyl-1-[4-[[2-[2-[2-[[2-(2,6-dioxo-3-piperidyl)-1,3-dioxo-isoindolin-4-yl]amino]ethoxy]ethoxy]ethylamino]methyl]phenyl]pyrazol-4-yl]-2-[2-(2,2,2-trifluoroethylamino)-4-pyridyl]oxazole-4-carboxamide]
